The target in this experiment is T1, HPK1 (Homo sapiens, UniProt Q92918).
T1 construct: A HiBiT tag was introduced by CRISPR on the N terminus of HPK1 in Jurkat cells; host or cells: Jurkat cells (ATCC TIB-152), monoclonal line with CRISPR knock-in of HiBiT at the endogenous HPK1 locus
In words: HPK1 Cellular HiBit Degradation Assay. Type of experiment: cell-based. The following applies: HiBiT HPK1 Jurkat cells, 24 hrs; for DC50: concentration at which 50% of HPK1 was remaining, read-out: DC50 Category; for Dmax: Jurkat, read-out: Dmax Category. In short, it runs like this: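 Jurkat cells with CRISPR N-terminal HiBiT-tagged endogenous HPK1 treated 24 h at 37 °C with 11-point, 3.16-fold dilutions (10 uM to 0.1 nM final). HiBiT lytic luminescence gives % HPK1 remaining versus DMSO, with parental cells as background. Four-parameter fit yields DC50; Dmax = 100 minus lowest % remaining.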
(The HiBiT peptide binds its large partner to form an active luciferase.)

[1] abbreviates: maximum degradation vs DMSO vehicle control.

Where only a bound is given, the exact number is not on record here.

T1 sequence (Q92918 whole entry): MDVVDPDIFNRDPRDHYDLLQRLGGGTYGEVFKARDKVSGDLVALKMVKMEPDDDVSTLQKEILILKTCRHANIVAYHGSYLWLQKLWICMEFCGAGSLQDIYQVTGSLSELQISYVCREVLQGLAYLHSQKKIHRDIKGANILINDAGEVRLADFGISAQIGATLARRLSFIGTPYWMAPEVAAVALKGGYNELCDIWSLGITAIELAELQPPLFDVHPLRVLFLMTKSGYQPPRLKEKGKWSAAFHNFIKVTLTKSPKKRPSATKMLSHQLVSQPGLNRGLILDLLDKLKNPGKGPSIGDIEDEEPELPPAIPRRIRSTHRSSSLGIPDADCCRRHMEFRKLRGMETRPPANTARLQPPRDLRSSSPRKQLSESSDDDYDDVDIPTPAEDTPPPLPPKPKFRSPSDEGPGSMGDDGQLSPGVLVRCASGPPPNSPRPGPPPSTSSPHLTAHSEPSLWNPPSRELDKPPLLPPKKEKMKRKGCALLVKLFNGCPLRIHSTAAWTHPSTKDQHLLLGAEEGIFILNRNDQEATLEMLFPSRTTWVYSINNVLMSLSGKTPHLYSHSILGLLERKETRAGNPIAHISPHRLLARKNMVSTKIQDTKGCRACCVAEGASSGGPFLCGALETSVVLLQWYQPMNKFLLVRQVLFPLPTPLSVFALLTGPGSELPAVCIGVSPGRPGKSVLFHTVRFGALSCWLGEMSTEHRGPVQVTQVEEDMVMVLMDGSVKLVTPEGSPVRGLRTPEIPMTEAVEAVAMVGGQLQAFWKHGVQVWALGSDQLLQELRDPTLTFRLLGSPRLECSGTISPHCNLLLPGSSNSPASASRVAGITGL

On to `Cc1cc(C2CCC(=O)NC2=O)ccc1N1CCC(C(=O)N2CCC(C)(C(=O)N3CCC4(CC3)C(=O)N([C@H]3C[C@@H](N5CCCCC5)C3)c3cc(-c5cc6ncn(C(C)C)c6c(NC6CC6)n5)ccc34)CC2)CC1` (mixture of isomers) [Example 226, (3RS)-3-(4-{4-[4-({6-[4-(cyclopropylamino)-3-(propan-2-yl)-3H-imidazo[4,5-c]pyridin-6-yl]-2-oxo-1-[(1S,3S)-3-(piperidin-1-yl)cyclobutyl]-1,2-dihydrospiro[indole-3,4′-piperidin]-1′-yl}carbonyl)-4-methylpiperidine-1-carbonyl]piperidin-1-yl}-3-methylphenyl)piperidine-2,6-dione], for which the 50% degradation concentration (DC50) was 100 to 500 nM. Under setting [1], the Dmax was 70 to 85%.
For the compound `Cc1cc(N2CCC(C(=O)N3CCC(C)(C(=O)N4CCC5(CC4)C(=O)N([C@H]4C[C@@H](N6CCCCC6)C4)c4cc(-c6cc7ncn(C(C)C)c7c(NC7CC7)n6)ccc45)CC3)CC2)ccc1C1CCC(=O)NC1=O` (mixture of isomers) [Example 227, (3RS)-3-(4-{4-[4-({6-[4-(cyclopropylamino)-3-(propan-2-yl)-3H-imidazo[4,5-c]pyridin-6-yl]-2-oxo-1-[(1S,3S)-3-(piperidin-1-yl)cyclobutyl]-1,2-dihydrospiro[indole-3,4′-piperidin]-1′-yl}carbonyl)-4-methylpiperidine-1-carbonyl]piperidin-1-yl}-2-methylphenyl)piperidine-2,6-dione], the 50% degradation concentration (DC50) was in the range of 100 to 500 nM. The Dmax under setting [1] was in the range of 70 to 85%.
On the same counts, the results for `CC(C)n1cnc2cc(-c3ccc4c(c3)N([C@H]3C[C@@H](N5CCCCC5)C3)C(=O)C43CCN(C(=O)[C@H]4CC[C@@H](C(=O)N5CCC(N(C)c6ccc(C7CCC(=O)NC7=O)cc6)CC5)CC4)CC3)nc(NC3CC3)c21` (mixture of isomers) [Example 228, (3RS)-3-{4-[methyl({1-[(1S,4S)-4-({6-[4-(cyclopropylamino)-3-(propan-2-yl)-3H-imidazo[4,5-c]pyridin-6-yl]-2-oxo-1-[(1S,3S)-3-(piperidin-1-yl)cyclobutyl]-1,2-dihydrospiro[indole-3,4′-piperidin]-1′-yl}carbonyl)cyclohexanecarbonyl]piperidin-4-yl})amino]phenyl}piperidine-2,6-dione] are 100 to 500 nM and 50 to 70%.
On to `CC(C)n1cnc2cc(-c3ccc4c(c3)N([C@H]3C[C@@H](N5CCCCC5)C3)C(=O)C43CCN(C(=O)CN4CCC(OCC#Cc5cccc6c5n(C)c(=O)n6C5CCC(=O)NC5=O)CC4)CC3)nc(NC3CC3)c21` (mixture of isomers) [Example 229, (3RS)-3-[4-(3-{[1-(2-{6-[4-(cyclopropylamino)-3-(propan-2-yl)-3H-imidazo[4,5-c]pyridin-6-yl]-2-oxo-1-[(1S,3S)-3-(piperidin-1-yl)cyclobutyl]-1,2-dihydrospiro[indole-3,4′-piperidin]-1′-yl}-2-oxoethyl)piperidin-4-yl]oxy}prop-1-yn-1-yl)-3-methyl-2-oxo-2,3-dihydro-1H-1,3-benzodiazol-1-yl]piperidine-2,6-dione], for which the DC50 was under 100 nM. Moreover, the greatest degradation seen (Dmax) under setting [1] lay within 70 to 85%.
In the case of `CC(C)n1cnc2cc(-c3ccc4c(c3)N(C3CC(N5CCCCC5)C3)C(=O)C43CCN(C(=O)C4CCC(C(=O)N5CCC(COc6ccc(C7CCC(=O)NC7=O)cc6)CC5)CC4)CC3)nc(NC3CC3)c21` (racemic) [Example 230, (3RS)-3-[4-({1-[(1R,4R)-4-({6-[4-(cyclopropylamino)-3-(propan-2-yl)-3H-imidazo[4,5-c]pyridin-6-yl]-2-oxo-1-[(1S,3S)-3-(piperidin-1-yl)cyclobutyl]-1,2-dihydrospiro[indole-3,4′-piperidin]-1′-yl}carbonyl)cyclohexanecarbonyl]piperidin-4-yl}methoxy)phenyl]piperidine-2,6-dione], the 50% degradation concentration (DC50) was under 100 nM. The “Dmax Category” value under setting [1] was “C (C: >50%-<70%)”.
As to `CC(C)n1cnc2cc(-c3ccc4c(c3)N([C@H]3C[C@@H](N5CCCCC5)C3)C(=O)C43CCN(C(=O)[C@H]4CCCN(C(=O)CC5CCN(c6ccc(C7CCC(=O)NC7=O)cn6)CC5)C4)CC3)nc(NC3CC3)c21` (mixture of isomers) [Example 231, (3RS)-3-[6-(4-{2-[(3S)-3-({6-[4-(cyclopropylamino)-3-(propan-2-yl)-3H-imidazo[4,5-c]pyridin-6-yl]-2-oxo-1-[(1S,3S)-3-(piperidin-1-yl)cyclobutyl]-1,2-dihydrospiro[indole-3,4′-piperidin]-1′-yl}carbonyl)piperidin-1-yl]-2-oxoethyl}piperidin-1-yl)pyridin-3-yl]piperidine-2,6-dione], the half-maximal degradation concentration (DC50) fell in the range of 100 to 500 nM. Besides, the Dmax under setting [1] fell in the range of 50 to 70%.
On the same counts, the results for `CC(C)n1cnc2cc(-c3ccc4c(c3)N([C@H]3C[C@@H](N5CCCCC5)C3)C(=O)C43CCN(C(=O)[C@@H]4CCN(C(=O)C5CCN(c6ccc(C7CCC(=O)NC7=O)cc6)CC5)C4)CC3)nc(NC3CC3)c21` (mixture of isomers) [Example 232, (3RS)-3-(4-{4-[(3R)-3-({6-[4-(cyclopropylamino)-3-(propan-2-yl)-3H-imidazo[4,5-c]pyridin-6-yl]-2-oxo-1-[(1S,3S)-3-(piperidin-1-yl)cyclobutyl]-1,2-dihydrospiro[indole-3,4′-piperidin]-1′-yl}carbonyl)pyrrolidine-1-carbonyl]piperidin-1-yl}phenyl)piperidine-2,6-dione] are under 100 nM and 70 to 85%.
The corresponding values for `CC(C)n1cnc2cc(-c3ccc4c(c3)N([C@H]3C[C@@H](N5CCCCC5)C3)C(=O)C43CCN(C(=O)[C@@H]4CCCN(C(=O)[C@H]5CC[C@H](Oc6ccc(C7CCC(=O)NC7=O)cc6)CC5)C4)CC3)nc(NC3CC3)c21` (mixture of isomers) [Example 234, (3RS)-3-(4-{[(1R,4R)-4-[(3R)-3-({6-[4-(cyclopropylamino)-3-(propan-2-yl)-3H-imidazo[4,5-c]pyridin-6-yl]-2-oxo-1-[(1S,3S)-3-(piperidin-1-yl)cyclobutyl]-1,2-dihydrospiro[indole-3,4′-piperidin]-1′-yl}carbonyl)piperidine-1-carbonyl]cyclohexyl]oxy}phenyl)piperidine-2,6-dione] are under 100 nM and 70 to 85%.
For `CC(C)n1cnc2cc(-c3ccc4c(c3)N([C@H]3C[C@@H](N5CCCCC5)C3)C(=O)C43CCN(C(=O)[C@@H]4CCCN(C(=O)CC5CCN(c6ccc(C7CCC(=O)NC7=O)cn6)CC5)C4)CC3)nc(NC3CC3)c21` (mixture of isomers) [Example 235, (3RS)-3-[6-(4-{2-[(3R)-3-({6-[4-(cyclopropylamino)-3-(propan-2-yl)-3H-imidazo[4,5-c]pyridin-6-yl]-2-oxo-1-[(1S,3S)-3-(piperidin-1-yl)cyclobutyl]-1,2-dihydrospiro[indole-3,4′-piperidin]-1′-yl}carbonyl)piperidin-1-yl]-2-oxoethyl}piperidin-1-yl)pyridin-3-yl]piperidine-2,6-dione], the DC50 was under 100 nM. Also, the Dmax under setting [1] is 70 to 85%.
The corresponding values for `CC(C)n1cnc2cc(-c3ccc4c(c3)N([C@H]3C[C@@H](N5CCCCC5)C3)C(=O)C43CCN(C(=O)C4CCN(C(=O)C5CCN(c6ccc(C7CCC(=O)NC7=O)nn6)CC5)CC4)CC3)nc(NC3CC3)c21` (mixture of isomers) [Example 236, (3RS)-3-(6-{4-[4-({6-[4-(cyclopropylamino)-3-(propan-2-yl)-3H-imidazo[4,5-c]pyridin-6-yl]-2-oxo-1-[(1S,3S)-3-(piperidin-1-yl)cyclobutyl]-1,2-dihydrospiro[indole-3,4′-piperidin]-1′-yl}carbonyl)piperidine-1-carbonyl]piperidin-1-yl}pyridazin-3-yl)piperidine-2,6-dione] are under 100 nM and 70 to 85%.
On the same counts, the results for `CC(C)n1cnc2cc(-c3ccc4c(c3)N([C@H]3C[C@@H](N5CCCCC5)C3)C(=O)C43CCN(C(=O)C4CCN(C(=O)C5CCN(c6ccc(C7CCC(=O)NC7=O)c(F)c6)CC5)CC4)CC3)nc(NC3CC3)c21` (mixture of isomers) [Example 237, (3RS)-3-(4-{4-[4-({6-[4-(cyclopropylamino)-3-(propan-2-yl)-3H-imidazo[4,5-c]pyridin-6-yl]-2-oxo-1-[(1S,3S)-3-(piperidin-1-yl)cyclobutyl]-1,2-dihydrospiro[indole-3,4′-piperidin]-1′-yl}carbonyl)piperidine-1-carbonyl]piperidin-1-yl}-2-fluorophenyl)piperidine-2,6-dione] are under 100 nM and 70 to 85%.
On the same counts, the results for `CC(C)n1cnc2cc(-c3ccc4c(c3)N([C@H]3C[C@@H](N5CCCCC5)C3)C(=O)C43CCN(C(=O)C4CN(C(=O)C5CCN(c6ccc(C7CCC(=O)NC7=O)cn6)CC5)C4)CC3)nc(Nc3ccccc3F)c21` (mixture of isomers) [Example 242, (3RS)-3-[6-(4-{3-[(6-{4-[(2-fluorophenyl)amino]-3-(propan-2-yl)-3H-imidazo[4,5-c]pyridin-6-yl}-2-oxo-1-[(1S,3S)-3-(piperidin-1-yl)cyclobutyl]-1,2-dihydrospiro[indole-3,4′-piperidin]-1′-yl)carbonyl]azetidine-1-carbonyl}piperidin-1-yl)pyridin-3-yl]piperidine-2,6-dione] are under 100 nM and over 85%.
As for `CC(C)n1cnc2cc(-c3ccc4c(c3)N([C@H]3C[C@@H](N5CCCCC5)C3)C(=O)C43CCN(C(=O)CN4CCN(C(=O)C5CCN(c6ccc(C7CCC(=O)NC7=O)cn6)CC5)CC4)CC3)nc(NC3CC3)c21` (mixture of isomers) [Example 243, (3RS)-3-(6-{4-[4-(2-{6-[4-(cyclopropylamino)-3-(propan-2-yl)-3H-imidazo[4,5-c]pyridin-6-yl]-2-oxo-1-[(1S,3S)-3-(piperidin-1-yl)cyclobutyl]-1,2-dihydrospiro[indole-3,4′-piperidin]-1′-yl}-2-oxoethyl)piperazine-1-carbonyl]piperidin-1-yl}pyridin-3-yl)piperidine-2,6-dione], the 50% degradation concentration (DC50) was under 100 nM. For the same compound, the Dmax under setting [1] lay in the range of 70 to 85%.

What is called DC50 is the concentration giving 50% degradation. For orientation: Dmax means the greatest extent of degradation seen.

The record behind these values is US12091426B2, “Bifunctional degraders of hematopoietic progenitor kinase and therapeutic uses thereof” (Nurix Therapeutics, Inc., priority 2021, dated 2024).
